Measurements: US20090093424A1, “Markers for melanoma” (University College Dublin, priority 2006, published 2009)

System: FABP5 gene expression in melanoma cell lines (WM793 and derivatives)
Assay: RT-PCR analysis via cycle limitation to assess effect of DAC treatment on FABP5 expression in melanoma cell lines
Assay type: cell-based, human
Description: Total RNA was extracted from untreated (−DAC) and treated (+DAC) cells and subjected to RT-PCR analysis via a cycle limitation method.
RNA extracts were pre-digested with DNase I prior to cDNA synthesis using the DNA-Free kit (Ambion). Single-stranded cDNA was synthesized from 1 μg total RNA using the ImProm-II Reverse Transcription kit (Promega). Recombinant RNasin Ribonuclease Inhibitor (20 U/20 μL reaction; Promega) was added to prevent RNase-mediated degradation. Two negative controls were also utilised, namely minus reverse transcriptase enzyme control and minus template control. Following inactivation of reverse transcriptase (RT) at 70° C. for 15 minutes, aliquots of generated single-stranded cDNA were subjected to polymerase chain reaction (PCR) amplification via a cycle limitation approach.
18 s was used as a control gene whose expression is unaffected by DAC treatment.
Primers used were as follows: […]

## Nc1ncn([C@H]2C[C@H](O)[C@@H](CO)O2)c(=O)n1 [DAC, 5-aza-2′-deoxycytidine]
Derivative melanoma cell lines of WM793, treated (+DAC) vs untreated (-DAC), 18s control gene, FIG. 6
  expression of the FABP5 gene after DAC treatment: increased expression of the FABP5 gene
More aggressive melanoma cell lines vs parental WM793, FIG. 6
  recovery of FABP5 expression by DAC treatment, aggressive derivative lines compared with parental line: recovered greater expression in these cells than in the parental melanoma cell line
